What was measured:
Human IL2 promoter = Human IL2 promoter reporter gene assay (RGA) in Jurkat cells; type: cell-based; settings: Jurkat clone K22 290_H23, anti-CD28 mAb + PMA stimulation 5.5 h
Method: Human IL2 Promoter Reporter Gene Assay (RGA) in Jurkat Cells
The transfected Jurkat clone K22 290_H23 was propagated in RPMI 1640 supplemented with 10% heat inactivated fetal calf serum, 50 μM 2-mercaptoethanol and 1 mg/ml Geneticin. The cell concentration should not exceed 1×10e6/ml during culturing. The cells should not exceed passage 30. Prior to the assay the cells were washed and prepared to the concentration of 2×10e6 cells/ml.
Compound dilutions were made as 2×-concentrated solutions then diluted 1/2 by addition to cells. Two hundred and fifty μl of compound dilution and 250 μl of cells were mixed together in wells of a 96-deep well plate. Cells/compounds premix were incubated 30 min at 37° C. and 5% CO2 directly in the deep well plate.
After pre-incubation of cells with compounds, cells were stimulated with anti-CD28 mAb (clone 15E8) at 3 μg/ml+PMA at 1 μg/ml. Both co-stimulants were diluted in culture medium at a 10×-concentrated solution. 10 μl of co-stimulants were pipetted into the white 96-well plates and 100 μl of cell/compound mix was immediately added in duplicates. The cells were stimulated for 5.5 h at 37° C. and 5% CO2.
After cell stimulation, 50 μl of BriteLitePlus reagent (Perkin Elmer) was added to each well and the bioluminescence was measured with a Wallac EnVision reader (Perkin Elmer).

[1] = target: cIAP2-MALT1 fusion protein (Homo sapiens, UniProt Q9UDY8); test: cell-based
cIAP2-MALT1 fusion protein, sequence (Q9UDY8 2-824 limits assumed): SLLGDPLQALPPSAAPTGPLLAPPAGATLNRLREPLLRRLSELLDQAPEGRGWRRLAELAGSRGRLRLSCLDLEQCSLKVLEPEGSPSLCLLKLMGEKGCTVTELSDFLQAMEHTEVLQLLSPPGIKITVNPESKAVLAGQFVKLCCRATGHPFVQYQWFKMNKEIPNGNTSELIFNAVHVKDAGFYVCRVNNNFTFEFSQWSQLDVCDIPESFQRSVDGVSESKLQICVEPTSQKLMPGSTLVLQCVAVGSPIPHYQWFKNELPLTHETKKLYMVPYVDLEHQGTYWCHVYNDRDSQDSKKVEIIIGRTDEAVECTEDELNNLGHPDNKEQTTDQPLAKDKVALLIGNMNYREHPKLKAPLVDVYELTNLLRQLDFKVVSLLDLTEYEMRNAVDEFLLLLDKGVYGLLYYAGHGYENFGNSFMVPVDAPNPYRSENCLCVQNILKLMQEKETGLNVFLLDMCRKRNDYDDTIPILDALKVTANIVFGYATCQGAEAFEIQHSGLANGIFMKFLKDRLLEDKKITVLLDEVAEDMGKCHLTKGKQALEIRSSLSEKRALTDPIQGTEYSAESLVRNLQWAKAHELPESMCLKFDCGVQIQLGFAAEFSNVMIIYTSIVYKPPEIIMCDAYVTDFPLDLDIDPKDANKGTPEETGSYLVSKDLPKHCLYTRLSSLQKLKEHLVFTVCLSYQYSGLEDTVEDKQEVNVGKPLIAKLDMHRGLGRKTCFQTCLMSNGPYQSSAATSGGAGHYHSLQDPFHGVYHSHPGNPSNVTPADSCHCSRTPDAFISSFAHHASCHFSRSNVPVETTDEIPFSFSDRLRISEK
Method: For the measurement of compound inhibition, 0.25 μl of test compound were mixed with 12.5 μl of enzyme in wells of the 384-well plates, and incubated for 60 minutes at room temperature (22° C.). After that, 12.5 μl of substrate was added, and the enzymatic reaction was allowed to proceed for 60 minutes at room temperature (22° C.). […] The DMSO content was between 0.9 and 1% (v/v). […] The IC50 value was calculated from the plot of percentage inhibition versus inhibitor concentration using non-linear regression analysis software (Origin, OriginLab Corporation, USA). The data were fitted using a 4 Parameter Logistic Model, characterized by the following equation: y=A2+(A1−A2)/(1+(x/IC50)^p) where y is the %-inhibition at the inhibitor concentration, x. A1 is the lowest inhibition value, and A2 the maximum inhibition value.

[2] = target: C-domain of MALT1 (amino acids 329-824) (Homo sapiens (Human), UniProt Q9UDY8); test: MALT1 biochemical assay (fluorescence lifetime enzyme activity assay); settings: 60 min pre-incubation, 2.5 nM enzyme, 1 μM peptide substrate
C-domain of MALT1 (amino acids 329-824), sequence (Q9UDY8 329-824): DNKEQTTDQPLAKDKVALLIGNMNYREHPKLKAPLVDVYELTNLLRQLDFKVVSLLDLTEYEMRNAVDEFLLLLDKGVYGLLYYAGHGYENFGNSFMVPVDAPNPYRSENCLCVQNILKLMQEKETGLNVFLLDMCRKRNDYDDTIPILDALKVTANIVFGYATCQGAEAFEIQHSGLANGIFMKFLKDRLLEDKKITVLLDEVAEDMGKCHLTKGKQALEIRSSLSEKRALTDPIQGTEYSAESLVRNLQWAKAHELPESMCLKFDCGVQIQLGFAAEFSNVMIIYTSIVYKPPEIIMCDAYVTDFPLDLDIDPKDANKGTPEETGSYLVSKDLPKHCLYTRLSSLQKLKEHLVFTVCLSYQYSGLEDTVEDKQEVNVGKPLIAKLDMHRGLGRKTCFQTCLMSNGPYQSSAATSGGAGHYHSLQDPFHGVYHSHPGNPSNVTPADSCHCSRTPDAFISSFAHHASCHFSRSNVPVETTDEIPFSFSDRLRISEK
Method: The readout parameter is the increase of fluorescence lifetime over time, proportional to enzyme activity.
The assay employs a short peptide substrate labeled with the single fluorophore PT14 as a fluorescence lifetime probe sensitive to the cleavage state of the substrate (PT14: 6-(9-oxo-9H-acridin-10-yl)-hexanoate, AssayMetrics, UK). […] The assay buffer consists of 200 mM Tris/HCl at pH 7.5, 0.8 M Na citrate, 100 μM EGTA, 100 μM DTT and 0.05% (w/v) CHAPS. […] Test compounds were dissolved in 100% (v/v) DMSO or a mixture containing 90% (v/v) DMSO and 10% (v/v) H2O at a stock concentration of 100 mM. Serial dilutions of test compounds were prepared using either 100% (v/v) DMSO or a mixture containing 90% (v/v) DMSO and 10% (v/v) H2O.

Structure (SMILES)	IC50 (Human IL2 promoter)	IC50 [1]	IC50 [2]
COC(=O)c1cc(Cl)cc(NC(=O)Nc2cnc3cc(Cl)nn3c2[C@H](C)OC)c1 [Example 13, (S)-methyl 3-chloro-5-(3-(2-chloro-7-(1-methoxyethyl)pyrazolo[1,5-a]pyrimidin-6-yl)ureido)benzoate]	39 nM	77 nM	2 nM
COC(C)(C)c1c(NC(=O)Nc2cnc(-n3nccn3)c(Cl)c2)cnc2cc(Cl)nn12 [Example 14, 1-(5-chloro-6-(2H-1,2,3-triazol-2-yl)pyridin-3-yl)-3-(2-chloro-7-(2-methoxypropan-2-yl)pyrazolo[1,5-a]pyrimidin-6-yl)urea]	67 nM	49 nM	3 nM
COc1ncc(NC(=O)Nc2cnc3cc(Cl)nn3c2C(C)C)cc1Cl [Example 18, 1-(5-chloro-6-methoxypyridin-3-yl)-3-(2-chloro-7-isopropylpyrazolo[1,5-a]pyrimidin-6-yl)urea]	207 nM	149 nM	3 nM
Cc1ncn(-c2ccc(NC(=O)Nc3cnc4cc(Cl)nn4c3C(C)C)cc2C#N)n1 [Example 19, 1-(2-chloro-7-isopropylpyrazolo[1,5-a]pyrimidin-6-yl)-3-(3-cyano-4-(3-methyl-1H-1,2,4-triazol-1-yl)phenyl)urea]	149 nM	91 nM	3 nM
CC(C)c1c(NC(=O)Nc2ccc(-n3nccn3)c(Cl)c2)cnc2cc(Cl)nn12 [Example 20, 1-(3-chloro-4-(2H-1,2,3-triazol-2-yl)phenyl)-3-(2-chloro-7-isopropylpyrazolo[1,5-a]pyrimidin-6-yl)urea]	245 nM	99 nM	3 nM
Cc1cnn(-c2ncc(NC(=O)Nc3cnc4cc(Cl)nn4c3C(C)C)cc2Cl)n1 [Example 22, 1-(5-chloro-6-(4-methyl-2H-1,2,3-triazol-2-yl)pyridin-3-yl)-3-(2-chloro-7-isopropylpyrazolo[1,5-a]pyrimidin-6-yl)urea]	100 nM	74 nM	4 nM
CC(C)c1c(NC(=O)Nc2ccc(-c3ccnc(N)n3)c(Cl)c2)cnc2cc(Cl)nn12 [Example 23, 1-(4-(2-aminopyrimidin-4-yl)-3-chlorophenyl)-3-(2-chloro-7-isopropylpyrazolo[1,5-a]pyrimidin-6-yl)urea]	307 nM	301 nM	
CCOc1ncc(NC(=O)Nc2cnc3cc(Cl)nn3c2C(C)C)cc1Cl [Example 25, 1-(5-chloro-6-ethoxypyridin-3-yl)-3-(2-chloro-7-isopropylpyrazolo[1,5-a]pyrimidin-6-yl)urea]	526 nM	306 nM	
COCCO[C@H](C)c1c(NC(=O)Nc2cnc(-n3nccn3)c(Cl)c2)cnc2cc(Cl)nn12 [Example 42, (R)-1-(5-chloro-6-(2H-1,2,3-triazol-2-yl)pyridin-3-yl)-3-(2-chloro-7-(1-(2-methoxyethoxy)ethyl)pyrazolo[1,5-a]pyrimidin-6-yl)urea]		378 nM	21 nM
COC(c1ccccc1)c1c(NC(=O)Nc2cnc(-n3nccn3)c(Cl)c2)cnc2cc(Cl)nn12 (centres unmarked) [Example 49, 1-(5-chloro-6-(2H-1,2,3-triazol-2-yl)pyridin-3-yl)-3-(2-chloro-7-(methoxy(phenyl)methyl)pyrazolo[1,5-a]pyrimidin-6-yl)urea]		59 nM	3 nM
COCC1(c2c(NC(=O)Nc3cnc(-n4nccn4)c(Cl)c3)cnc3cc(Cl)nn23)CCC1 [Example 50, 1-(5-chloro-6-(2H-1,2,3-triazol-2-yl)pyridin-3-yl)-3-(2-chloro-7-(1-(methoxymethyl)cyclobutyl)pyrazolo[1,5-a]pyrimidin-6-yl)urea]		230 nM	20 nM
COc1ccccc1-c1c(NC(=O)Nc2cnc(-n3nccn3)c(Cl)c2)cnc2cc(Cl)nn12 [Example 53, 1-(5-chloro-6-(2H-1,2,3-triazol-2-yl)pyridin-3-yl)-3-(2-chloro-7-(2-methoxyphenyl)pyrazolo[1,5-a]pyrimidin-6-yl)urea]		171 nM	4 nM
CC1(c2c(NC(=O)Nc3cnc(-n4nccn4)c(Cl)c3)cnc3cc(Cl)nn23)CCOCC1 [Example 55, 1-(5-chloro-6-(2H-1,2,3-triazol-2-yl)pyridin-3-yl)-3-(2-chloro-7-(4-methyltetrahydro-2H-pyran-4-yl)pyrazolo[1,5-a]pyrimidin-6-yl)urea]		287 nM	5 nM
O=C(Nc1cnc(-n2nccn2)c(Cl)c1)Nc1cnc2cc(Cl)nn2c1C1CCOC1 (centres unmarked) [Example 57, 1-(5-chloro-6-(2H-1,2,3-triazol-2-yl)pyridin-3-yl)-3-(2-chloro-7-(tetrahydrofuran-3-yl)pyrazolo[1,5-a]pyrimidin-6-yl)urea]		284 nM	19 nM
O=C(Nc1cnc(-n2nccn2)c(Cl)c1)Nc1cnc2cc(Cl)nn2c1CC1CCOCC1 [Example 60, 1-(5-chloro-6-(2H-1,2,3-triazol-2-yl)pyridin-3-yl)-3-(2-chloro-7-((tetrahydro-2H-pyran-4-yl)methyl)pyrazolo[1,5-a]pyrimidin-6-yl)urea]		502 nM	26 nM
CC(C)OCc1c(NC(=O)Nc2cnc(-n3nccn3)c(Cl)c2)cnc2cc(Cl)nn12 [Example 61, 1-(5-chloro-6-(2H-1,2,3-triazol-2-yl)pyridin-3-yl)-3-(2-chloro-7-(isopropoxymethyl)pyraozlo[1,5-a]pyrimidin-6-yl)urea]		370 nM	19 nM
COCCC(OC)c1c(NC(=O)Nc2cnc(-n3nccn3)c(Cl)c2)cnc2cc(Cl)nn12 (centres unmarked) [Example 64, 1-(5-chloro-6-(2H-1,2,3-triazol-2-yl)pyridin-3-yl)-3-(2-chloro-7-(1,3-dimethoxypropyl)pyrazolo[1,5-a]pyrimidin-6-yl)urea]		187 nM	13 nM
C[C@@H](OCc1ccccc1)c1c(NC(=O)Nc2cnc(-n3nccn3)c(C(F)(F)F)c2)cnc2cc(Cl)nn12 [Example 65, (R)-1-(6-(2H-1,2,3-triazol-2-yl)-5-(trifluoromethyl)pyridin-3-yl)-3-(7-(1-(benzyloxy)ethyl)-2-chloropyrazolo[1,5-a]pyrimidin-6-yl)urea]		405 nM	9 nM
COc1ncc(NC(=O)Nc2cnc3cc(Cl)nn3c2C2C3COCC32)cc1Cl (centres unmarked) [Example 67, 1-(7-(3-oxabicyclo[3.1.0]hexan-6-yl)-2-chloropyrazolo[1,5-a]pyrimidin-6-yl)-3-(5-chloro-6-methoxypyridin-3-yl)urea]		553 nM	35 nM
CN(C)C(=O)c1c(NC(=O)Nc2cnc(-n3nccn3)c(Cl)c2)cnc2cc(Cl)nn12 [Example 70, 2-chloro-6-(3-(5-chloro-6-(2H-1,2,3-triazol-2-yl)pyridin-3-yl)ureido)-N,N-dimethylpyrazolo[1,5-a]pyrimidine-7-carboxamide]		891 nM	123 nM
COCC1(c2c(NC(=O)Nc3ccnc(C(F)(F)F)c3)cnc3cc(Cl)nn23)CC1 [Example 77, 1-(2-chloro-7-(1-(methoxymethyl)cyclopropyl)pyrazolo[1,5-a]pyrimidin-6-yl)-3-(2-(trifluoromethyl)pyridin-4-yl)urea]		241 nM	6 nM
CC(C)(c1c(NC(=O)Nc2ccnc(C(F)(F)F)c2)cnc2cc(Cl)nn12)C1CCOCC1 [Example 80, 1-(2-chloro-7-(2-(tetrahydro-2H-pyran-4-yl)propan-2-yl)pyrazolo[1,5-a]pyrimidin-6-yl)-3-(2-(trifluoromethyl)pyridin-4-yl)urea]		621 nM	34 nM
C[C@H](OCCN(C)C)c1c(NC(=O)Nc2cnc(-n3nccn3)c(Cl)c2)cnc2cc(Cl)nn12 [Example 82, (S)-1-(5-chloro-6-(2H-1,2,3-triazol-2-yl)pyridin-3-yl)-3-(2-chloro-7-(1-(2-(dimethylamino)ethoxy)ethyl)pyrazolo[1,5-a]pyrimidin-6-yl)urea]		311 nM	122 nM
CN1CCCC[C@H]1c1c(NC(=O)Nc2cnc(-n3nccn3)c(Cl)c2)cnc2cc(Cl)nn12 [Example 84, (S)-1-(5-chloro-6-(2H-1,2,3-triazol-2-yl)pyridin-3-yl)-3-(2-chloro-7-(1-methylpiperidin-2-yl)pyrazolo[1,5-a]pyrimidin-6-yl)urea]		89 nM	19 nM
CO[C@H](C)CO[C@@H](C)c1c(NC(=O)Nc2cnc(-n3nccn3)c(Cl)c2)cnc2cc(Cl)nn12 [Example 85, 1-(5-chloro-6-(2H-1,2,3-triazol-2-yl)pyridin-3-yl)-3-(2-chloro-7-((S)-1-((R)-2-methoxypropoxy)ethyl)pyrazolo[1,5-a]pyrimidin-6-yl)urea]		190 nM	5 nM
